Results on seven compounds are retold here after patent US20030228621A1, “Common ligand universal enzyme assay and compositions for use therein” (priority 2002, published 2003).

Like-named read-outs stand apart in the source and are kept apart here. Where only a bound is given, the exact number is not on record here.

Experiment [1] addresses T1, dihydrodipicolinate reductase (DHPR) (Escherichia coli, UniProt P04036). The experiment in a line: Fluorescence polarization displacement of FITC-NADH from dihydrodipicolinate reductase. It counts as binding. The procedure: FITC-NADH was dissolved in 10 mM TAPS buffer with 5% NaHCO3, pH=8. The final concentration of FITC-NADH was 150 μM. In later experiments 150 μM FITC-NADH was diluted to the desired concentration in 20 mM Potassium Phosphate buffer, pH=7.4. Fluorescence polarization was monitored using a Beacon 2000 Variable Temperature Fluorescence Polarization System (PanVera Corporation, Madison, Wis.) and an LJL Analyst HT 96-384 (Molecular Devices Corporation, Sunnyvale, Calif.). The concentration of FITC-NADH as fluorescent tracer was selected by measuring fluorescence polarization of varying concentrations of FITC-NADH in 10 mM Potassium Phosphate buffer, pH=7.4. The concentration range was 0.15 nM—15 nM. For the best signal to noise ratio regarding both the horizontal and vertical intensities that contribute to the fluorescence polarization value, a concentration of 25 nM was chosen for FITC-NADH in the majority of experiments.
The fluorescence polarization of solutions of 7 μM dihydrodipicolinate reductase and 25 nM FITC-NADH with NADH was measured. The concentration of dihydrodipicolinate reductase was such that a solution of dihydrodipicolinate reductase and FITC-NADH would give the fluorescence polarization mP value of 220-230 mP. The blank was protein in buffer and NADH. […] The data was fitted to the following equation:
mP=YH′−(YH′−YL)*(1/(1+Kd^app/C))
Kd=Kd^app*(1/(1+A/Kd^tracer))
(§1) where C is the concentration of NADH; A is the concentration of enzyme; YH′ is the polarization for the FITC-NADH at the specified enzyme concentration in the absence of NADH; YL is the polarization for FITC-NADH when fully displaced from the enzyme by NADH; and Kd^tracer is the dissociation constant of the enzyme for FITC-NADH.
The displacement of FITC-NADH from dihydrodipicolinate reductase in the presence of the candidate inhibitor compound bromaminic acid, an NMNH-mimic (nicotinamide mononucleotide mimic), was measured by fluorescence polarization assay. The concentration of dihydrodipicolinate reductase was such that dihydrodipicolinate reductase in the presence of FITC-NADH would give the fluorescence polarization, mP, value of 220-230. Protein in buffer combined with the inhibitor was used as the blank.
The Log(bromaminic acid, μM) versus Polarization (mP) data were fitted to the following equation: […]
as §1
In this assay, enzyme in the presence of the ligand has less FITC-NADPH bound if both of the ligands compete for the same site.
(§2) A population of 620 compounds were screened in the competitive displacement assay described herein. […] These compounds are depicted in FIG. 16.

Experiment [2] deals with DHPR (Escherichia coli, UniProt P04036). The experiment in a line: Intrinsic fluorescence of the compound upon binding to the enzyme. To be noted: excitation 365 nm, emission 435 nm. An excerpt: It can be used either as a tracer for the screening, with or without being labeled with a detectable moiety of the invention. As such, this compound can be used for screening candidate ligands.
Chain of DHPR (P04036 whole entry): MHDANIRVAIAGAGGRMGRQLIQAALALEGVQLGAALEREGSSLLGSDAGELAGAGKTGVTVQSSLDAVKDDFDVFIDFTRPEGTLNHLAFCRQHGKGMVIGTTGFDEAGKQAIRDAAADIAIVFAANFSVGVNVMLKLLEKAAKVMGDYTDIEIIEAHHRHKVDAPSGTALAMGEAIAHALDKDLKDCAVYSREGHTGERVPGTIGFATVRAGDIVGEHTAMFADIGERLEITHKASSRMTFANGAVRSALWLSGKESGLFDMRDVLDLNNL

In experiment [3] the test system is dehydrogenases. The experiment in a line: Extent and reversibility of inhibition of the dehydrogenase panel by triazinyl dyes. The experiment is classed as biochemical. The protocol: (§3) In search for specific ligands with potent binding to several dehydrogenases we screened our internal enzyme panel. In brief, activity of the enzymes was measured in the presence and absence of the varying concentration of the dyes.
Since all of the dye molecules have a triazinyl reactive group, reversibility of the inhibition was checked.
(§4) In this assay, the oxidoreductase common ligand (NADPH) was employed at a concentration sixteen times its Km value. Use of such a high concentration of oxidoreductase common ligand results in a calculated IC50 value at least 17-fold that of the dissociation constant (Kd).

In experiment [4] the target is Deoxy-D-xylulose 5-phosphate reductoisomerase (DOXPR) (Escherichia coli, UniProt P45568). In words: Enzyme activity in presence and absence of varying concentration of dye, DOXPR. The experiment is classed as biochemical. To be noted: for IC50: NADPH at sixteen times its Km, read-out: Inhibition (IC50, nM) DOXPR. The protocol: as §3, §4
Chain of Deoxy-D-xylulose 5-phosphate reductoisomerase (DOXPR) (P45568 whole entry): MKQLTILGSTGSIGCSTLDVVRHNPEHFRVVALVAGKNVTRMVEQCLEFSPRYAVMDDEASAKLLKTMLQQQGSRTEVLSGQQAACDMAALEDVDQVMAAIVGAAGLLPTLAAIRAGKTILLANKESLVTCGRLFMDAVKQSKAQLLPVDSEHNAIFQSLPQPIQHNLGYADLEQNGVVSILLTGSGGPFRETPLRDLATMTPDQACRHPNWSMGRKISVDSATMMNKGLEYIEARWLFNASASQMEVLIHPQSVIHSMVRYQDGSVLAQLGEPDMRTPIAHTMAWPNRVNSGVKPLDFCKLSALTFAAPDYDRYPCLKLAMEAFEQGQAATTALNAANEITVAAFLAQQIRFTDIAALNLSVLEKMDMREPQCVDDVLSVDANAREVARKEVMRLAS
Experiment [5] concerns the target T1, dihydrodipicolinate reductase (DHPR). In words: Enzyme activity in presence and absence of varying concentration of dye, DHPR. The experiment is classed as biochemical. As to conditions: for IC50: read-out: Inhibition (IC50, nM) DHPR. The protocol: as §3
The target in experiment [6] is T2, 3-Hydro-3-methyl-glutaryl-CoA reductase (HMGCoAR) (Homo sapiens, UniProt P04035).
T2 sequence (P04035 1-888): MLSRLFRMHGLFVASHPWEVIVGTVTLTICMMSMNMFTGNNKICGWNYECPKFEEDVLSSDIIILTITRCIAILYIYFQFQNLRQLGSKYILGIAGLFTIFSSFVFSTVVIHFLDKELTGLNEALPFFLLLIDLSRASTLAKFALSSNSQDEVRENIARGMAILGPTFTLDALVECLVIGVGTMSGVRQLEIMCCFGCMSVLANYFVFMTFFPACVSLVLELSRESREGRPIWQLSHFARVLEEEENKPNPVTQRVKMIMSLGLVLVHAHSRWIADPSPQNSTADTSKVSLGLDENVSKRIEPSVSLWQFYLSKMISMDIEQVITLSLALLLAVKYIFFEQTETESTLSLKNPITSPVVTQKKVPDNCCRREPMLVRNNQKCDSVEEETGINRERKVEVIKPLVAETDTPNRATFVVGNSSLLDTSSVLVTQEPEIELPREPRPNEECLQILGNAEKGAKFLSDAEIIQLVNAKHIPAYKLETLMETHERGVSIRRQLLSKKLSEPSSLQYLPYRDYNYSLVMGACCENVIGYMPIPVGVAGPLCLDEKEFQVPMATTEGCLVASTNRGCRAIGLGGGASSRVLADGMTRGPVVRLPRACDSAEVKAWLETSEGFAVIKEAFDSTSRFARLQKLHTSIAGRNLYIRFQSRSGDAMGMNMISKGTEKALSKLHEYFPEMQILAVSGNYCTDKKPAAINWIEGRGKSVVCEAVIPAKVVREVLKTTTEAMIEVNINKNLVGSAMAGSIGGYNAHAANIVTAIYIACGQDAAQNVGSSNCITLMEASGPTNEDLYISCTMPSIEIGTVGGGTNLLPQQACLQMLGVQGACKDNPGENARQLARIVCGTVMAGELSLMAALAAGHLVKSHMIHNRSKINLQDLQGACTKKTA
In words: Enzyme activity in presence and absence of varying concentration of dye, HMGCoAR. It counts as biochemical. To be noted: read-out: Inhibition (IC50, nM) HMGCoAR. The protocol: as §3

For experiment [7], the target named is Lactate dehydrogenase (LDH). The experiment in a line: Enzyme activity in presence and absence of varying concentration of dye, LDH. The experiment is classed as biochemical. As to conditions: read-out: Inhibition (IC50, nM) LDH. The protocol:
as §3

The target in experiment [8] is Enoyl-acyl carrier protein reductase (EACPR) (Escherichia coli, UniProt P0AEK4). In words: Enzyme activity in presence and absence of varying concentration of dye, EACPR. The experiment is classed as biochemical. To be noted: read-out: Inhibition (IC50, nM) EACPR. The procedure: as §3
Chain of Enoyl-acyl carrier protein reductase (EACPR) (P0AEK4 whole entry): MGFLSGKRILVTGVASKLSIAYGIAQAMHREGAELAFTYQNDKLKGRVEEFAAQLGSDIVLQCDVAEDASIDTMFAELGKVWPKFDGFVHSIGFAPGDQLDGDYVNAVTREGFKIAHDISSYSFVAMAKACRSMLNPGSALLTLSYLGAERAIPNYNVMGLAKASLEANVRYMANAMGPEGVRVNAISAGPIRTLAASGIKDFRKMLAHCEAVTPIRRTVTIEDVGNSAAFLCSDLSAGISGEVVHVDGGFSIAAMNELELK
The target in experiment [9] is 1-deoxy-D-xylulose 5-phosphate reductoisomerase (DOXPR) (Escherichia coli, UniProt P45568). In words: Displacement of FITC-NADPH from the FITC-NADPH:DOXPR complex (FIG. 14A, 14B). As to conditions: displacement of FITC-NADPH tracer from DOXPR. It counts as binding. An excerpt: (§5) The competitive binding of the dye common ligands of the present invention can be evaluated by use of a displacement assay. In particular, enzyme in the presence of a competitive ligand will have less FITC-NADPH bound if both ligands compete for the same site. […] The dye common ligands of the present invention can completely displace FITC-NADPH from complexes containing this fluorescent tracer and a dehydrogenase. […] Thus, dye common ligands of the invention are useful in displacement assays to study the activity of an oxidoreductase, particularly those having unknown function.
Chain of 1-deoxy-D-xylulose 5-phosphate reductoisomerase (DOXPR) (P45568 whole entry): as the sequence (P45568 whole entry) above
(§6) In competitive assays, the tested dyes displaced the fluorescent-based tracer FITC-NADPH, implying that the dyes bind to DOXPR at the common ligand site. In this assay, enzyme in the presence of the ligand has less FITC-NADPH bound if both of the ligands compete for the same site. […] Calculated Kd values were based on curve shape and were lower than the experimentally determined IC50s.

The target in experiment [10] is DOXPR (Escherichia coli, UniProt P45568). The experiment in a line: Displacement of FITC-NADPH from the FITC-NADPH:DOXPR complex. The experiment is classed as binding.
Chain of DOXPR (P45568 whole entry): as above
Excerpt: as §5, §6, §2

[11] abbreviates: 7 μM DHPR, 25 nM FITC-NADH, not corrected for enzyme concentration, read-out: Kapp (Kd app), displacement of FITC-NADH.
The mark [12] stands for this setting: 7 μM DHPR, 25 nM FITC-NADH, read-out: actual Kd after correction for enzyme concentration.
Where [13] appears, read: calculated from curve shape, read-out: Kd from displacement experiments with FITC-NADH and DHPR.

T1 sequence (P04036 whole entry): as the sequence (P04036 whole entry) above

On to `O=S(=O)(O)c1cc(Nc2nc(Nc3ccccc3)nc(N(CCO)CCO)n2)ccc1/C=C\c1ccc(Nc2nc(Nc3ccccc3)nc(N(CCO)CCO)n2)cc1S(=O)(=O)O`, for which, in [1] (compound from screen of 620 compounds, read-out: kd, tight binding to DHPR), the Kd was below 100 nM. In experiment [2], the “increase in intrinsic fluorescence upon binding to the enzyme” value stood at 3 fold.

For the compound `NC(=O)C1=CN([C@@H]2O[C@H](COP(=O)(O)OP(=O)(O)OC[C@H]3O[C@@H](n4cnc5c(N)ncnc54)[C@H](O)[C@@H]3O)[C@@H](O)[C@H]2O)C=CC1` [NADH, Reduced nicotinamide adenine dinucleotide], the Kd was found to be 1200 ± 150 nM in [1] (setting [11]) and 200 nM in experiment [1] (setting [12]).

Regarding `Nc1c(S(=O)(=O)O)cc(Nc2ccc(Nc3nc(Cl)nc(Nc4cccc(S(=O)(=O)O)c4)n3)c(S(=O)(=O)O)c2)c2c1C(=O)c1ccccc1C2=O` [Reactive Blue 2], the “reversibility of the inhibition” value in experiment [3] is “full reversible inhibition”. Further, the IC50 in experiment [4] was 2000 nM; in [5], 1100 nM; in experiment [6], 1000 nM; in [7] it was 1500 nM; in [8], 2500 nM.

`O=S(=O)(O)c1cc(Nc2nc(Cl)nc(Nc3ccc(Nc4nc(Cl)nc(Nc5cc(S(=O)(=O)O)cc6cc(S(=O)(=O)O)c(N=Nc7ccccc7S(=O)(=O)O)c(O)c56)n4)cc3)n2)c2c(O)c(N=Nc3ccccc3S(=O)(=O)O)c(S(=O)(=O)O)cc2c1` [Reactive Red 120]: in experiment [3], the “reversibility of the inhibition” value is “full reversible inhibition”. The Kd in experiment [9] (calculated, based on curve shape) is 5.8 nM; in experiment [1] (setting [13]), 54 nM. Further, the IC50 was 310 nM in experiment [9]; 230 nM in experiment [4]; 220 nM in experiment [5]; 360 nM in experiment [6]; 9.7 nM in experiment [7]; 246 nM in experiment [8]. Further, the “mode of inhibition versus oxidoreductase common ligand (NADPH)” value in [4] is “competitive”. For the same compound, in experiment [10], the “displacement of FITC-NADPH from the FITC-NADPH:DOXPR complex” value is recorded as “completely displaced”.

As to `Nc1c(S(=O)(=O)O)cc(Br)c2c1C(=O)c1ccccc1C2=O` [bromaminic acid], the results for the Kd in experiment [1] (setting [11]) and in [1] (setting [12]) were 30000 ± 2200 nM and 5000 nM, respectively.

As for Reactive Green 5, the “reversibility of the inhibition” value in experiment [3] is “full reversible inhibition”. Further, the Kd in experiment [1] (setting [13]) is 15 nM. For the same compound, in experiment [4], the “mode of inhibition versus oxidoreductase common ligand (NADPH)” value was “competitive”. Also, the figures for the IC50 in experiment [5], in [6] and in experiment [7] were 230 nM, 44 nM and 590 nM, respectively. For the same compound, in [10], the “displacement of FITC-NADPH from the FITC-NADPH:DOXPR complex” value was “completely displaced”.

In the case of Sulphophthalocyanine, the “binding to DOXPR” value in experiment [4] (tested for inhibition of DOXPR) is “binds”. Moreover, the “binding to DHPR” value in [5] (tested for inhibition of DHPR) is given as “binds”.

One may read the IC50 as the midpoint of a concentration-inhibition curve.
